Laboratory results: US20130209625A1, “METHODS AND COMPOSITIONS FOR STIMULATING A FELIDAE T1R RECEPTOR” (MONELL CHEMICAL SENSES CENTER, priority 2010, published 2013)

Test system: Felidae T1R1/T1R3 receptor
Assay: Calcium imaging (fura-2, F340/F380) of HEK293 cells expressing T1R1/T1R3 receptor and Gα15, responses to taste stimuli
Assay type: cell-based, cat
Source text: Provided herein are methods for determining if two or more test compounds have an augmenting effect on the T1R1/T1R3 receptor where each test compound alone elicits a small or moderate response comprising contacting the receptor with the test compounds, and measuring the response of the receptor to the test compounds, wherein the compounds have an augmenting effect on the receptor if the response of the receptor to the compounds in a mixture in which each compound is presented at a given concentration is greater than the response to either one of the compounds alone at its given respective concentration. Responses are measured in terms of the Fluorescence Ratio F340/F380 as detailed in the Examples. Responses are gauged by comparing each response with the response to 100 μM isoproterenol, the positive control which activates the cell through Gα15. A null response is less than 10% of the control response. A small or moderate response is equal to or greater than 10% of the control response. In some preferred embodiments, the T1R1/T1R3 receptor is a Felidae T1R1/T1R3 receptor
b. Cell Transfection: HEK293 cell lines that stably express Gα15 were grown and maintained at 37° C. DMEM supplemented with 10% FBS and MEM nonessential amino acids (Invitrogen); the medium for Gα15 transfected cells contains 5 μg/ml blasticidin (Invitrogen). Cells were co-transfected with expression constructs by using Lipofectamine 2000 reagent (Invitrogen). T1R1/T1R3 transfected cells were selected using Zeocin (100 μg/ml) and hygromycin (400 μg/ml).
c. Establishing stable cell lines: Transfected cells were maintained in antibiotic selective medium until colonies appear. Single colonies were identified two weeks after transfection and were examined for RNA expression by RT-PCR and for protein expression by immunohistochemistry. Positive colonies confirmed by RT-PCR and immunohistochemistry were stocked in liquid nitrogen as stable cell lines expressing T1R1/T1R3.
a. In vitro assays: HEK293 cells' responses to taste stimuli were measured using calcium imaging techniques (Nelson et al. 2001, Li et al. 2002, Gomez et al. 2005). Transfected cells were loaded with fura-2 containing buffer for one hour. Coverslips with fura-2 loaded cells were then placed in a recording chamber and continuously superfused with Hank's salt solution (Nelson et al. 2001). Enhancement solutions were applied by switching the superfusion, which allowed a complete change of bath solutions within 5-20 seconds, based on preliminary experiments with fluorescent dye for each setup and recording chamber. Calcium imaging recordings were performed using Imagemaster-5 multi-wavelength quantitative fluorescence imaging system (Photon Technology International, Inc.). Cells were illuminated with UV light at two wavelengths (340 or 380 nm). Intracellular calcium activity was computed from the ratio of emitted light from the 340/380 nm wavelengths. Excitation light was shuttered between acquisitions, with exposure times being minimized (typically 50-100 msec). Images are normally acquired every 2-5 sec. Using these conditions, cells remain viable in the recording setup for more than 2 h without significant effects of dye bleaching or baseline shifts. The use of ratiometric imaging reduces the problems associated with fluorescence quenching or dye loss that can generate artifacts using single-wavelength dyes.
b. Amino acid stimulation of the HEK transfected cell lines: In a typical experiment to determine if there is an interaction at the receptor between two compounds, the response (peak height of intracellular calcium concentration) to each compound as well as a mixture of the two compounds is measured. If each compound alone elicits a small or moderate response, it will be necessary to compare responses to single compounds with a mixture in which each compound is presented at its initial test concentration. In this manner we can determine if the enhancement is greater than simple additivity. […]

O=C(O)[C@@H]1CCCN1 [L-proline]
response of HEK293 cell (calcium imaging) (FIG. 1, 25 mM L-proline alone, vs 100 μM isoproterenol positive control): null responses | response of HEK293 cells (calcium imaging) (FIG. 2, 3 cells, 50 mM L-proline alone): null responses | response of HEK293 cell (calcium imaging) (FIG. 3, 50 mM L-proline presented singly): null responses

C[C@H](N)C(=O)O [L-alanine]
response of HEK293 cell (calcium imaging) (FIG. 5, 25 mM L-alanine alone): null responses

O=P([O-])([O-])OP(=O)([O-])O.[Na+].[Na+].[Na+] [sodium pyrophosphate, trisodium pyrophosphate]
response of HEK293 cell (calcium imaging) (FIG. 3, 10 mM sodium pyrophosphate presented singly): null responses | response of HEK293 cell (calcium imaging) (FIG. 3, 20 mM sodium pyrophosphate presented singly): null responses | response of HEK293 cells (calcium imaging) (FIG. 4, 5 cells, 20 mM sodium pyrophosphate alone): null responses | response of HEK293 cell (calcium imaging) (FIG. 6, 20 mM sodium pyrophosphate alone): weak response

N[C@@H](Cc1c[nH]cn1)C(=O)O [L-histidine]
augmentation of response by pyrophosphate (FIG. 4, 5 cells): not augmented | response of HEK293 cells (calcium imaging) (FIG. 4, 5 cells, 25 mM L-histidine alone): null responses | response of HEK293 cell (calcium imaging) (FIG. 5, 25 mM L-histidine alone): null responses

NCCCC[C@H](N)C(=O)O [L-lysine]
response of HEK293 cells (calcium imaging) (FIG. 4, 5 cells, 25 mM L-lysine alone): null responses | response of HEK293 cell (calcium imaging) (FIG. 6, 25 mM L-lysine alone): null response (A null response is less than 10% of the control response)
